Data taken from ChEMBL document CHEMBL1151045, “Synthesis and evaluation of the anticonvulsant activity of a series of 2-amino-1-phenyl-1-propanols derived from the metabolites of the antidepressant bupropion” (1997).
Where “and” joins values, the source holds several entries; their conditions need not be identical. Equal values may be shown once. Calls of active or inactive are those of the source. No cut-off for these calls is given here.

These compounds were tested on Mus musculus (assay: Anticonvulsant activity measured in Maximal electroshock assay (MES), intraperitoneal administration). Details: not given.
Format: functional

Q: `CC(NC(C)(C)C)[C@H](O)c1ccccc1` (single isomer, unassigned) was tested. Which ED50 did it give?
A: 25 mg/kg

Q: For `C[C@@H](NC(C)(C)C)[C@H](O)c1cccc(Cl)c1` [ERYTHRO-HYDROBUPROPION], which ED50 is on record?
A: 11 mg/kg

Q: How did the ED50 turn out when `C[C@H](NC(C)(C)C)[C@H](O)c1cccc(Cl)c1` [ERYTHRO-HYDROBUPROPION] was run?
A: 28 mg/kg

Q: With `CC(NC(C)(C)C)C(O)c1cccc(Cl)c1` (racemic; form 1) [ERYTHRO-HYDROBUPROPION] as the compound, how does the ED50 read?
A: 14 mg/kg

Q: Which ED50 does the source give for `CC(NC(C)(C)C)C(O)c1cccc(C(F)(F)F)c1` (racemic; form 1) here?
A: 16 mg/kg

Q: `CC(NC(C)(C)C)C(O)c1cccc(Cl)c1` (racemic; form 2) [ERYTHRO-HYDROBUPROPION] was tested. Which ED50 did it give?
A: 26 mg/kg

Q: Which ED50 does the source give for `C[C@@H](NC(C)(C)C)[C@H](O)c1cccc(C(F)(F)F)c1` here?
A: 17 mg/kg and 22 mg/kg

Same assay, conditions: Mus musculus, ip; read-out: ED50

Q: With `C[C@@H](NC1CCCCC1)[C@H](O)c1cccc(Cl)c1` as the compound, how does the ED50 read?
A: 13 mg/kg

Q: `O=C1NC(=O)C(c2ccccc2)(c2ccccc2)N1` [PHENYTOIN] was tested. Which ED50 did it give?
A: 8.5 mg/kg

Q: How did the ED50 turn out when `CC(C)(C)NCC(O)c1cccc(Cl)c1` (centres undefined) was run?
A: 28 mg/kg

Q: `C[C@@H](NC(C)(C)C)[C@H](O)c1cccc(Br)c1` was tested. Which ED50 did it give?
A: 11 mg/kg

Q: Which ED50 does the source give for `CCC(C)(C)N[C@H](C)[C@H](O)c1cccc(C(F)(F)F)c1` here?
A: 18 mg/kg

Q: How did the ED50 turn out when `CC(NC(C)(C)C)C(O)c1cccc(C(F)(F)F)c1` (racemic; form 2) was run?
A: 25 mg/kg

Q: Which ED50 does the source give for `CC[C@H](NC(C)(C)C)[C@H](O)c1cccc(C(F)(F)F)c1` here?
A: 40 mg/kg

Q: With `Cc1ccc([C@@H](O)[C@@H](C)NC(C)(C)C)cc1` as the compound, how does the ED50 read?
A: 33 mg/kg

Q: How did the ED50 turn out when `C[C@H](NC(C)(C)C)[C@H](O)c1cccc(Br)c1` was run?
A: 16 mg/kg

Q: Which ED50 does the source give for `CC[C@@H](NC(C)(C)C)[C@H](O)c1cccc(Cl)c1` here?
A: 15 mg/kg

Q: How did the ED50 turn out when `CC(C)N[C@H](C)[C@H](O)c1cccc(C(F)(F)F)c1` was run?
A: 40 mg/kg

Q: With `C[C@H](NC(C)(C)C)[C@H](O)c1ccc(Cl)cc1` as the compound, how does the ED50 read?
A: 25 mg/kg

Q: How did the ED50 turn out when `CCC(C)(C)N[C@@H](C)[C@H](O)c1cccc(Cl)c1` was run?
A: 23 mg/kg

Q: `CC[C@H](NC(C)(C)C)[C@H](O)c1cccc(Cl)c1` was tested. Which ED50 did it give?
A: 26 mg/kg

Q: `CCC(C)N[C@H](C)[C@H](O)c1cccc(C(F)(F)F)c1` (some centres undefined) was tested. Which ED50 did it give?
A: 31 mg/kg

Q: For `C[C@@H](NC(C)(C)C)[C@H](O)c1ccc(Cl)c(Cl)c1`, which ED50 is on record?
A: 13 mg/kg

Q: Which ED50 does the source give for `CCC(C)(C)N[C@@H](C)[C@H](O)c1cccc(C(F)(F)F)c1` here?
A: 28 mg/kg

Q: With `C[C@H](NC(C)(C)C)[C@H](O)c1ccc(Cl)c(Cl)c1` as the compound, how does the ED50 read?
A: 31 mg/kg

Q: With `CCC[C@H](NC(C)(C)C)[C@H](O)c1cccc(C(F)(F)F)c1` as the compound, how does the ED50 read?
A: 31 mg/kg

Q: `CC[C@@H](NC(C)(C)C)[C@H](O)c1cccc(C(F)(F)F)c1` was tested. Which ED50 did it give?
A: 31 mg/kg

Q: With `CCC(C)(C)N[C@H](C)[C@H](O)c1cccc(Cl)c1` as the compound, how does the ED50 read?
A: 11 mg/kg

Q: With `C[C@@H](NC(C)(C)C)[C@H](O)c1ccc(Cl)cc1` as the compound, how does the ED50 read?
A: 29 mg/kg

Q: For `CC(C)N[C@@H](C)[C@H](O)c1cccc(Cl)c1`, which ED50 is on record?
A: 20 mg/kg

Q: With `CCC[C@H](NC(C)(C)C)[C@H](O)c1cccc(Cl)c1` as the compound, how does the ED50 read?
A: 31 mg/kg

Q: With `C[C@@H](NC(C)(C)C)[C@H](O)c1ccccc1` as the compound, how does the ED50 read?
A: 14 mg/kg

The compounds below were run on Mus musculus (assay: Anticonvulsant activity of compound was tested in mice after intraperitoneal administration in Maximal electroshock assay (MES); Inactive at 13 mg/kg dose). Details: not given.
Format: functional, organism-based
Set-up: dose 13 mg/kg

Q: Which ED50 does the source give for `CCCCN[C@H](C)[C@H](O)c1cccc(C(F)(F)F)c1` here?
A: inactive

Each compound was assayed on Mus musculus (assay: Anticonvulsant activity of compound was tested in mice after intraperitoneal administration in Maximal electroshock assay (MES); Inactive at 30 mg/kg dose). Details: not given.
Format: functional, organism-based
Set-up: dose 30 mg/kg

Q: `C[C@H](NC(C)(C)CO)[C@H](O)c1cccc(Cl)c1` was tested. Which ED50 did it give?
A: inactive

Each compound was assayed on Mus musculus (assay: Anticonvulsant activity of compound was tested in mice after intraperitoneal administration in Maximal electroshock assay (MES); Inactive at 40 mg/kg dose). Details: not given.
Format: functional, organism-based
Set-up: dose 40 mg/kg

Q: With `C[C@@H](NC(C)(C)C)[C@H](O)c1cccc([N+](=O)[O-])c1` as the compound, how does the ED50 read?
A: inactive

Q: With `C[C@H](NC(C)(C)C)[C@H](O)c1cccc([N+](=O)[O-])c1` as the compound, how does the ED50 read?
A: inactive

Q: For `Cc1ccc([C@@H](O)[C@H](C)NC(C)(C)C)cc1`, which ED50 is on record?
A: inactive

These compounds were tested on Mus musculus (assay: Anticonvulsant activity of compound was tested in mice after intraperitoneal administration in Maximal electroshock assay (MES); Inactive at 60 mg/kg dose). Details: not given.
Format: functional, organism-based
Set-up: dose 60 mg/kg

Q: How did the ED50 turn out when `C[C@H](N)[C@H](O)c1cccc(Cl)c1` was run?
A: inactive

These compounds were tested on Mus musculus (assay: Anticonvulsant activity of compound was tested in mice after intraperitoneal administration in Maximal electroshock assay (MES); Inactive at 70 mg/kg dose). Details: not given.
Format: functional, organism-based
Set-up: dose 70 mg/kg

Q: How did the ED50 turn out when `COc1ccc([C@@H](O)[C@H](C)NC(C)(C)C)cc1` was run?
A: inactive
